Assay results as given in EP2276483B1, “SOLID FORMS COMPRISING (+)-2-[1-(3-ETHOXY-4-METHOXYPHENYL)-2-METHYLSULFONYLETHYL]-4-ACETYLAMINOISOINDOLINE-1,3-DIONE, COMPOSITIONS THEREOF, AND USES THEREOF” (CELGENE CORPORATION, priority 2008, dated 2009).

Tests used:
[1] = tested on: TNF-α; experiment: Human Whole Blood LPS-induced TNF-α assay; format: cell-based
Protocol: The ability of compounds to inhibit LPS-induced-TNF-α production by human whole blood was measured essentially as described below for the LPS-induced TNF-α assay in human PBMC, except that freshly drawn whole blood was used instead of PBMC.
Lipopolysaccharide (LPS) is an endotoxin produced by gram-negative bacteria such as E. coli which induces production of many pro-inflammatory cytokines, including TNF-α. In peripheral blood mononuclear cells (PBMC), the TNF-α produced in response to LPS is derived from monocytes, which comprise approximately 5-20% of the total PBMC. Compounds were tested for the ability to inhibit LPS-induced TNF-α production from human PBMC as previously described (Muller et al., 1996, J. Med. Chem., 39:3238). PBMC from normal donors were obtained by Ficoll Hypaque (Pharmacia, Piscataway, NJ, USA) density centrifugation. Cells were cultured in RPMI (Life Technologies, Grand Island, NY, USA) supplemented with 10% AB± human serum (Gemini Bio-products, Woodland, CA, USA), 2 mM L-glutamine, 100 U/ml penicillin, and 100 µg/ml streptomycin (Life Technologies).
PBMC (2 x 10^5 cells) were plated in 96-well flat-bottom Costar tissue culture plates (Coming, NY, USA) in triplicate. Cells were stimulated with LPS (Sigma, St. Louis, MO, USA) at 100 ng/ml in the absence or presence of compounds. […]

[2] = tested on: IL-2; experiment: cells; format: cell-based; conditions: Homo sapiens, PBMC, read-out: IL-2 IC50
[3] = tested on: IL-8; experiment: Zymosan-induced IL-8 production in human neutrophils; format: cell-based; conditions: Neutrophil
Protocol: Zymosan A, or the heat-killed yeast Saccharomyces cerevisiae, binds to the adhesion molecule Mac-1 on the neutrophil surface and triggers phagocytosis, cell activation and IL-8 production. Zymosan-induced IL-8 production was measured as previously described (Au et al., 1998, Brit. J. Pharm., 123:1260-1266) with the following modifications. Human neutrophils were purified as described above, plated in 96-well tissue culture plates at 3x10^5 cells/well in complete medium, treated with compounds at 10, 2, 0.4, 0.08, 0.016, 0.0032, 0.00064, and 0 µM in duplicate in a final DMSO concentration of 0.1% for 1 hour at 37°C 5% CO2. Neutrophils were then stimulated with unopsonized, boiled Zymosan A (Sigma) at 2.5 x 10^5 particles/well for 18 hours. Supernatants were harvested and tested for IL-8 by ELISA (R&D Systems).

[4] = tested on: LPS-induced pulmonary neutrophilia; experiment: LPS-induced lung neutrophilia ferret model; format: in vivo, ferrets (Mustela Pulorius Euro); conditions: Mustela putorius, po; conscious ferret, p.o.; read-out: Inhibition of LPS-induced neutrophilia (ED50 mg/kg)
Source text: The conscious ferret model has been used to investigate anti-inflammatory, emetic and behavioral effects of PDE4 inhibitors when administered by the oral (p.o.) route. From these experiments, a therapeutic index (TI) for each PDE4 inhibitor may be determined. The TI has been calculated by dividing the threshold dose for causing emetic episodes and behavioral changes by the anti-inflammatory dose (dose that causes 50% inhibition of the LPS-induced neutrophilia).
Male ferrets (Mustela Pulorius Euro, weighing 1 - 2 kg). Ferrets were supplied either by Bury Green Farm or Misay Consultancy. Following transport, the animals were allowed to acclimatize in the holding rooms for a period of not less than seven days. The diet comprised SDS diet C pelleted food given ad lib with Whiskers™ cat food given three times per week. Water was pasteurized animal grade drinking water and was changed daily. […]
Thirty minutes after p.o. dosing with compound or vehicle control, the ferrets were placed into sealed Perspex containers and exposed to an aerosol of LPS (100 µg/ml) for 10 minutes. […] Observation continued for a period of at least 2.5 hours post p.o. dosing and emetic episodes and behavioral changes were recorded. […]
The bronchoalveolar lavage (BAL) samples were centrifuged at 1,500 rpm for 5 minutes. […] From this, the total number of neutrophils in the BAL was determined. […]

[5] = tested on: patients with severe plaque-type psoriasis; format: in vivo, human
[6] = Nonresponder, 20 mg orally daily, signed change

Question: Which IC50 [1] does the source give for `CCOc1cc(C(CS(C)(=O)=O)N2C(=O)c3cccc(NC(C)=O)c3C2=O)ccc1OC` (single isomer, unassigned; (+)) [Compound A, (+)-2-[1-(3-ethoxy-4-methoxyphenyl)-2-methylsulfonylethyl]-4-acetylaminoisoindoline-1,3-dione] here?
Answer: 0.294 µM

Question: And the IC50 [2]?
Answer: 0.291 µM

Question: And the IC50 [3]?
Answer: 0.094 µM

Question: And the ED50 [4]?
Answer: 0.8 mg/kg

Question: What about the “treatment-related adverse event: headache” value ([5]; 20 mg orally daily for 29 days) of the same molecule?
Answer: 26.3%

Question: And the “treatment-related adverse event: nausea” value ([5]; 20 mg orally daily for 29 days)?
Answer: 15.8%

Question: What about the “patients demonstrating a 20% reduction in epidermal skin thickness” value ([5]; 20 mg orally daily for 29 days, Day 29, 8 of the 15 patients with evaluable biopsies) of the same molecule?
Answer: 53.3%

Question: And the “mean reduction of epidermal thickness” value ([5]; 20 mg orally daily, Day 29, all 15 subjects with evaluable biopsies, p=0.015)?
Answer: 20.5%

Question: And the “safety in subjects with severe plaque-type psoriasis” value ([5]; 20 mg p.o. QD for 29 days)?
Answer: safe

Question: What about the “patients demonstrating improvement in the static Physician's Global Assessment (sPGA)” value ([5]; 9 of the 17 evaluable patients, 29 days of treatment) of the same molecule?
Answer: 52.9%

Question: What about the “patients showing a reduction from baseline in psoriasis body surface area (BSA)” value ([5]; 10 of the 17 evaluable patients, 29 days of treatment) of the same molecule?
Answer: 58.8%

Question: And the “patients showing a >50% reduction from baseline in total PASI score” value ([5]; Day 29, 3 patients of 19 enrolled)?
Answer: 15.8%

Question: And the “subjects demonstrating improvement in their PASI” value ([5]; Day 29, 14 of the 19 subjects enrolled)?
Answer: 73.7%

Question: And the “enrolled patients showing a reduction from baseline in psoriasis body surface area (BSA)” value ([5]; Day 29, of enrolled patients)?
Answer: 52.6%

Question: And the “enrolled patients showing an improvement in their sPGA” value ([5]; Day 29, of enrolled patients)?
Answer: 47.4%

Question: What about the “Percentage Reduction of Key Inflammatory Markers at Day 29: CD11c, Dermis” value [5, 6] of the same molecule?
Answer: -21.19%

Question: And the “Percentage Reduction of Key Inflammatory Markers at Day 29: CD11c, Epidermis” value [5, 6]?
Answer: -2.54%

Question: And the “Percentage Reduction of Key Inflammatory Markers at Day 29: CD83+, Dermis” value [5, 6]?
Answer: +0.46%

Question: What about the “Percentage Reduction of Key Inflammatory Markers at Day 29: CD83+, Epidermis” value [5, 6] of the same molecule?
Answer: -16.31%

Question: And the “Percentage Reduction of Key Inflammatory Markers at Day 29: T-cells, Dermis” value [5, 6]?
Answer: -17.34%

Question: What about the “Percentage Reduction of Key Inflammatory Markers at Day 29: T-cells, Epidermis” value [5, 6] of the same molecule?
Answer: +8.74%

Question: And the “reduction of mRNA expression of iNOS” value ([5]; lesional skin after 29 days of treatment, RT-PCR, p=0.025)?
Answer: 66.5%
